This is an account of results in patent US8906925B2, “Pyrido[4,3-B]indoles containing rigid moieties” (Medivation Technologies, Inc., priority 2008, dated 2014).

Experiment [1] addresses T1, human recombinant histamine H2 receptor (Homo sapiens, UniProt P25021).
T1 construct: expressed in transfected cells; host or cells: Chinese hamster ovary (CHO) K1 cells
Put plainly: Histamine H2 radioligand binding ([125I]Aminopotentidine). The note with it: read-out: Histamine Binding (1 μM) H2, percent inhibition of specific binding, 1 μM. On the procedure: To evaluate in radioligand binding assays the activity of compounds of the invention, human recombinant histamine H2 receptor expressed in Chinese hamster ovary (CHO) K1 cells (Ruat, M., Proc. Natl. Acad. Sci. USA. 87(5):1658, 1990) in a 50 mM Phosphate buffer, pH 7.4 was used. Compounds of the invention were incubated with 0.1 nM [^125I]Aminopotentidine for 120 min. at 25° C. Non-specific binding was estimated in the presence of 3 μM Tiotidine. Receptor proteins were filtered and washed, the filters were then counted to determine [^125I]Aminopotentidine specifically bound.

Experiment [2] deals with human recombinant serotonin (5-Hydroxytryptamine) 5-HT7 receptor (Homo sapiens, UniProt P34969). Description: Serotonin 5-HT7 radioligand binding ([3H]LSD). As to conditions: read-out: Inhibition of ligand binding, Serotonin 5-HT7 (percent inhibition of specific binding); for inhibition at 1 µM: compound at 1 μM. From the text: Receptor proteins were filtered and washed, the filters were then counted to determine [^3H]LSD specifically bound.

Experiment [3] concerns the target human dopamine D2L receptor (Homo sapiens, UniProt P14416). Description: Dopamine D2L radioligand binding ([3H]Spiperone). As to conditions: compound at 1 μM; for Inhibition of ligand binding, Dopamine D2L: 1 µM. From the text:
Non-specific binding was estimated in the presence of […] Haloperidol. Receptor proteins were filtered and washed, the filters were then counted to determine [^3H]Spiperone specifically bound. […] Biochemical assay results are presented as the percent inhibition of specific binding in Table 9.

The target in experiment [4] is T2, human recombinant serotonin (5-Hydroxytryptamine) 5-HT2C receptor (Homo sapiens, UniProt P28335).
T2 construct: expressed in transfected cells; host or cells: Chinese hamster ovary (CHO-K1) cells
T2 sequence (P28335 33-458): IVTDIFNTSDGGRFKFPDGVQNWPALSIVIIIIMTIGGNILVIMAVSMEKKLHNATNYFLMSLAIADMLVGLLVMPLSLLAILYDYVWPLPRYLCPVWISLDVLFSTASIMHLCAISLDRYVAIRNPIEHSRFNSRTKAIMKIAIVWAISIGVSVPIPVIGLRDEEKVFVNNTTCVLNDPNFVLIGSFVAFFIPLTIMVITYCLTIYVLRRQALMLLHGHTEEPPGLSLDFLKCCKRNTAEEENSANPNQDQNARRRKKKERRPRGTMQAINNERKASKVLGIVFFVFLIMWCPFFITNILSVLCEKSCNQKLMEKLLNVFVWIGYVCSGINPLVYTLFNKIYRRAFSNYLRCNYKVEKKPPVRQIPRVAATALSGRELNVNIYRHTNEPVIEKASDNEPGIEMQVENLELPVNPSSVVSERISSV
Put plainly: Serotonin 5-HT2C radioligand binding ([3H]Mesulergine). The note with it: read-out: Inhibition of ligand binding, Serotonin 5-HT2C (percent inhibition of specific binding); for inhibition at 1 µM: compound at 1 μM; for inhibition at 0.1 µM: compound at 0.1 μM. In a few lines:
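Compounds tested at 1 μM or lower (1% DMSO vehicle) for displacement of 1 nM [3H]Mesulergine over 60 min at 25° C. Specific binding determined by filtration counting, with 1 μM Mianserin defining non-specific binding; values are percent inhibition.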

The target in experiment [5] is T3, human recombinant serotonin (5-Hydroxytryptamine) 5-HT6 receptor (Homo sapiens, UniProt P50406).
T3 construct: expressed in transfected cells; host or cells: human HeLa cells
Put plainly: Serotonin 5-HT6 radioligand binding ([3H]LSD). As to conditions: read-out: Inhibition of ligand binding, Serotonin 5-HT6 (percent inhibition of specific binding); for inhibition at 1 µM: compound at 1 μM; for inhibition at 0.1 µM: compound at 0.1 μM. The protocol:
Compounds of the invention were incubated with 1.5 nM [3H]Lysergic acid diethylamide (LSD) for 120 min. at 37° C. […] Receptor proteins were filtered and washed, the filters were then counted to determine [3H]LSD specifically bound. Compounds were screened at 1 μM or lower, using 1% DMSO as vehicle. Biochemical assay results are presented as the percent inhibition of specific binding in Table 10.

For experiment [6], the target named is T4, human recombinant serotonin (5-Hydroxytryptamine) 5-HT2A receptor (Homo sapiens, UniProt P28223).
T4 construct: expressed in transfected cells; host or cells: Chinese hamster ovary (CHO-K1) cells
Description: Serotonin 5-HT2A radioligand binding ([3H]Ketanserin). As to conditions: for inhibition at 1 µM: read-out: Inhibition of ligand binding, Serotonin 5-HT2A (percent inhibition of specific binding), compound at 1 μM; for inhibition at 0.1 µM: read-out: Inhibition of ligand binding, Serotonin 5-HT2A (percent inhibition of specific binding), compound at 0.1 μM. On the procedure:
Compounds of the invention were incubated with 0.5 nM [^3H]Ketanserin for 60 min. at 25° C. Non-specific binding was estimated in the presence of 1 μM Mianserin. Receptor proteins were filtered and washed, the filters were then counted to determine [^3H]Ketanserin specifically bound.

In the next experiment the target is histamine receptor H1 (Homo sapiens, UniProt P35367). Put plainly: Histamine H1 radioligand binding ([3H]Pyrilamine). The note with it: for inhibition at 1 µM: read-out: Histamine Binding (1 μM) H1, percent inhibition of specific binding, 1 μM. In outline:
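Values are percent inhibition of specific [3H]pyrilamine (1.2 nM) binding with compounds at ≤1 μM (1% DMSO vehicle); 180 min incubation at 25 °C, pH 7.4 Tris buffer, on CHO-expressed human H1 receptor; 1 μM pyrilamine defined nonspecific binding, bound ligand counted after filtration.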

Setting [7] is: percent inhibition of specific binding, read-out: Inhibition of ligand binding, Dopamine D2L.
Where [8] appears, read: percent inhibition of specific binding.

Values joined by “and” are separate entries in the source; they are usually repeats but may differ in a detail not shown here. Equal values may be shown once. Read-outs that look alike come from different tables or passages of the source.

Chain of histamine receptor H1 (P35367 whole entry): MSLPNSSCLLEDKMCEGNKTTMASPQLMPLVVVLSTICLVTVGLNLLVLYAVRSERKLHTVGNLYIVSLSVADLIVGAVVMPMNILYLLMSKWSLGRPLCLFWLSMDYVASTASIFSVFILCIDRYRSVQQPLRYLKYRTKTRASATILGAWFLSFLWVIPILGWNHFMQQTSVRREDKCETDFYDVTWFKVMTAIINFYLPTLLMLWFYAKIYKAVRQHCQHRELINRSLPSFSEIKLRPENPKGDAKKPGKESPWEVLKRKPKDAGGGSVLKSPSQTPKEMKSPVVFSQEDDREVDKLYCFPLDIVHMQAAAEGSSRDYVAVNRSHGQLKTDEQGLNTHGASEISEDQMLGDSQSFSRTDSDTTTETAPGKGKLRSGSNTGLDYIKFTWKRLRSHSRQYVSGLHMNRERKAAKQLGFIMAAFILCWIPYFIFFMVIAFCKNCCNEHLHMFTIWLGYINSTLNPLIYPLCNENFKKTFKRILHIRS
Chain of human recombinant serotonin (5-Hydroxytryptamine) 5-HT7 receptor (P34969 whole entry): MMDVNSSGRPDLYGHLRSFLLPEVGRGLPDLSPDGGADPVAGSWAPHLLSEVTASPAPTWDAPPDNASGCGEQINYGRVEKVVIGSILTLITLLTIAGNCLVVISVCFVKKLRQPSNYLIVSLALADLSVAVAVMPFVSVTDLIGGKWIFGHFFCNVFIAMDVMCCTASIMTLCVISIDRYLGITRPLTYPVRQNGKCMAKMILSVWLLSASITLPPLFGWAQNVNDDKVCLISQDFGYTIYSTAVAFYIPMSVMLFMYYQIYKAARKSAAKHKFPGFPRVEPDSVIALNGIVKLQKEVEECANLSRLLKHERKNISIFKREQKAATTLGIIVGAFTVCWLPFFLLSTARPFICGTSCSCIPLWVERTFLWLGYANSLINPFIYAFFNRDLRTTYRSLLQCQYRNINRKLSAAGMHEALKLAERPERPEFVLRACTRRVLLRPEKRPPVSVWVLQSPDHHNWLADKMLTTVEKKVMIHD
T4 sequence (P28223 whole entry): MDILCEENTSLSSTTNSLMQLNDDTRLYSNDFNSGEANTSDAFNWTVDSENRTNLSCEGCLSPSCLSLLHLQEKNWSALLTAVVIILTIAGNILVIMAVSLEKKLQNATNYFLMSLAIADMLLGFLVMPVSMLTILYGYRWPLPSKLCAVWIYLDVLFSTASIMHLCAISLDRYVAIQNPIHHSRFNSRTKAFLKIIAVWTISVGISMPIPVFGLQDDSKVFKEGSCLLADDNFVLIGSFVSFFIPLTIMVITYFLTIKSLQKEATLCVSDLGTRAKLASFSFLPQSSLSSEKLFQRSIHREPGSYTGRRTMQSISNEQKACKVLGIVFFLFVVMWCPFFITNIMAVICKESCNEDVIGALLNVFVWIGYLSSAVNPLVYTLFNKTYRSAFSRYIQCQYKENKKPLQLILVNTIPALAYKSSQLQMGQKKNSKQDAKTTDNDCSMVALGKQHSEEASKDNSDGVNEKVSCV
Chain of human dopamine D2L receptor (P14416 whole entry): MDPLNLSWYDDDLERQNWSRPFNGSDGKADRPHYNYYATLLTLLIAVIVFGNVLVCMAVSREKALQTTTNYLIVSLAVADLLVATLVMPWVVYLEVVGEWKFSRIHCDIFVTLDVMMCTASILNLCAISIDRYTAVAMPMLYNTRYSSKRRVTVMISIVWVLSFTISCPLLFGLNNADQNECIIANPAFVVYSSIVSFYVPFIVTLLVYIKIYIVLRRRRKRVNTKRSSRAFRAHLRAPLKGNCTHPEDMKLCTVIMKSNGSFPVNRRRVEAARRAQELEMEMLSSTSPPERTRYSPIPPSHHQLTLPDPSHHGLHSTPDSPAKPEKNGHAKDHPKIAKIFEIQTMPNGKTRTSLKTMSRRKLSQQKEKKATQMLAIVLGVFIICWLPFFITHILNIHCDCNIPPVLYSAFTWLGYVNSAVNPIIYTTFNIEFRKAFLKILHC
T1 sequence (P25021 whole entry): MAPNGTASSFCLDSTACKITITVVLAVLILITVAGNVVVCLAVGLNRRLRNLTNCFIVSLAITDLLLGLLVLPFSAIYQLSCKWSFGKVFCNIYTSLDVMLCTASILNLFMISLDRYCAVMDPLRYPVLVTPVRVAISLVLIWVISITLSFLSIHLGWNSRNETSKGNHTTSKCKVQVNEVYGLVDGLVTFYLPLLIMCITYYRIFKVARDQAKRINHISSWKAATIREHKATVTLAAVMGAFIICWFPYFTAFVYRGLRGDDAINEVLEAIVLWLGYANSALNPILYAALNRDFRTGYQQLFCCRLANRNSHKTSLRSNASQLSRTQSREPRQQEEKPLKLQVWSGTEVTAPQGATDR
T3 sequence (P50406 whole entry): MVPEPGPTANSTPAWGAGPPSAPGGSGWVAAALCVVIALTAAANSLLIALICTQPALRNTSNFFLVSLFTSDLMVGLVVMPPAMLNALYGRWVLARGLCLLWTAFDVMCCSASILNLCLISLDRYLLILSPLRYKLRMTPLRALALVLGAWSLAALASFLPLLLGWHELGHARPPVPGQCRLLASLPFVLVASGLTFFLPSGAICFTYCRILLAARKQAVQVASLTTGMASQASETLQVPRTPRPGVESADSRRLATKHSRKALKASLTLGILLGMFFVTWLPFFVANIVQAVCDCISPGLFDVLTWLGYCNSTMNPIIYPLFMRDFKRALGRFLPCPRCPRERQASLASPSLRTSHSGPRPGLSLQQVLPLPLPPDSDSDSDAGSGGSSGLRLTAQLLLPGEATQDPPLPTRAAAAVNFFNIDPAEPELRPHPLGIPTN

With `CN1CCc2c(c3cccc(F)c3n2CC(C)(O)c2ccncc2)C1` (stereo not drawn) [Compound 185, 1-(6-fluoro-2-methyl-3,4-dihydro-1H-pyrido[4,3-b]indol-5(2H)-yl)-2-(pyridin-4-yl)propan-2-ol], the inhibition at 1 µM in experiment [1] was 29%; in experiment [2], 41%; in experiment [3] (setting [7]) it was -1%; in experiment [4] it was 83%; in experiment [5], 26%; in experiment [6], 82%. Besides, the inhibition at 1 µM on histamine receptor H1 turned out to be 8%.
For `C/C(=C/n1c2c(c3cc(C)ccc31)CN(C)CC2)c1ccc(Cl)c(Cl)c1` [Compound 247, (Z)-5-(2-(3,4-dichlorophenyl)prop-1-enyl)-2,8-dimethyl-2,3,4,5-tetrahydro-1H-pyrido[4,3-b]indole], the inhibition at 1 µM in experiment [1] is 99%; in experiment [2] it was 101%; in experiment [3] (setting [7]), 28%; in experiment [4], 100%; in experiment [5], 103%; in experiment [6], 101%. Further, the inhibition at 1 µM at histamine receptor H1 was 75%.
For `C/C(=C\n1c2c(c3cc(C)ccc31)CN(C)CC2)c1cc(F)c(F)cc1Cl` [Compound 221, (E)-5-(2-(2-chloro-4,5-difluorophenyl)prop-1-enyl)-2,8-dimethyl-2,3,4,5-tetrahydro-1H-pyrido[4,3-b]indole], the inhibition at 1 µM in experiment [1] turned out to be 98%; in experiment [2], 93%; in experiment [3] (setting [7]), 34%; in experiment [4] it was 99%; in experiment [5], 95%; in experiment [6] it was 97%. Further, the inhibition at 1 µM on histamine receptor H1 was determined as 90%.
With `C/C(=C\n1c2c(c3cc(Cl)ccc31)CN(C)CC2)c1ccc(Cl)c(Cl)c1` [Compound 103, (E)-8-chloro-5-(2-(3,4-dichlorophenyl)prop-1-enyl)-2,3,4,5-tetrahydro-2-methyl-1H-pyrido[4,3-b]indole], the inhibition at 1 µM in experiment [1] amounted to 101%; in experiment [2], 90%; in experiment [3] (setting [7]), 49%; in experiment [4] it was 98%; in experiment [5], 89%; in experiment [6], 101%. For the same compound, the inhibition at 1 µM on histamine receptor H1 was found to be 81%.
For the compound `C/C(=C\n1c2c(c3ccc(F)cc31)CN(C)CC2)c1ccc(F)cc1` [Compound 227, (E)-7-fluoro-5-(2-(4-fluorophenyl)prop-1-enyl)-2-methyl-2,3,4,5-tetrahydro-1H-pyrido[4,3-b]indole], the inhibition at 1 µM in experiment [1] was determined as 101%; in experiment [2], 90%; in experiment [3] (setting [7]), 97%; in experiment [4], 103%; in experiment [5] it was 107%; in experiment [6] it was 103%. The inhibition at 1 µM at histamine receptor H1 was determined as 52%.
Turning to `C/C(=C\n1c2c(c3cccc(Cl)c31)CN(C)CC2)c1ccncc1` [Compound 222, (E)-6-chloro-2-methyl-5-(2-(pyridin-4-yl)prop-1-enyl)-2,3,4,5-tetrahydro-1H-pyrido[4,3-b]indole], the inhibition at 1 µM worked out at 91% in experiment [1]; 69% in experiment [2]; 82% in experiment [3] (setting [7]); 99% in experiment [4]; 102% in experiment [5]; 100% in experiment [6]. In addition, on histamine receptor H1, the inhibition at 1 µM was 25%.
For `C=C(Cn1c2c(c3cccc(F)c31)CN(C)CC2)c1ccc(F)cc1` [Compound No. 353, 6-fluoro-5-(2-(4-fluorophenyl)allyl)-2-methyl-2,3,4,5-tetrahydro-1H-pyrido[4,3-b]indole], the inhibition at 1 µM in experiment [1] came to 93%; in experiment [2], 87%; in experiment [3] ([…] [3H]Spiperone, read-out: Inhibition of ligand binding, Dopamine D2L (percent inhibition of specific binding)) it was 92%; in experiment [4] it was 97%; in experiment [5], 100%; in experiment [6], 98%. Besides, the inhibition at 1 µM at histamine receptor H1 came to 100%.
For the compound `C/C(=C\n1c2c(c3cc(C)ccc31)CN(C)CC2)c1ccc(Cl)c(Cl)c1` [Compound 231, (E)-5-(2-(3,4-dichlorophenyl)prop-1-enyl)-2,8-dimethyl-2,3,4,5-tetrahydro-1H-pyrido[4,3-b]indole], the inhibition at 1 µM in experiment [1] is 97%; in experiment [2] it was 94%; in experiment [3] (setting [7]), 40%; in experiment [4], 98%; in experiment [5], 97%; in experiment [6] it was 101%. Moreover, the inhibition at 1 µM on histamine receptor H1 came to 58%.
Regarding `C/C(=C\n1c2c(c3cc(F)ccc31)CN(C)CC2)c1ccncc1` [Compound 216, (E)-8-fluoro-2-methyl-5-(2-(pyridin-4-yl)prop-1-enyl)-2,3,4,5-tetrahydro-1H-pyrido[4,3-b]indole], the inhibition at 1 µM in experiment [1] came out at 61%; in experiment [2] it was 79%; in experiment [3] (setting [7]), 97%; in experiment [4], 94%; in experiment [5], 104%; in experiment [6], 99%. Moreover, the inhibition at 1 µM at histamine receptor H1 came to 47%. The inhibition at 0.1 µM amounted to 66% in experiment [2] (compound at 0.1 μM), 83% in experiment [4], 100% in experiment [5] and 98% in experiment [6]. Besides, in experiment [3] (setting [8]), the “Inhibition of ligand binding, Dopamine D2L” value came to 98%. Moreover, the “Histamine Binding (1 μM) H1, percent inhibition of specific binding” value at histamine receptor H1 is recorded as 49%.
As to `C/C(=C\n1c2c(c3cc(C)ccc31)CN(C)CC2)c1cc(Cl)cc(Cl)c1` [Compound 218, (E)-5-(2-(3,5-dichlorophenyl)prop-1-enyl)-2,8-dimethyl-2,3,4,5-tetrahydro-1H-pyrido[4,3-b]indole], the inhibition at 1 µM is 98% in experiment [1]; 93% in experiment [2]; 40% in experiment [3] (setting [7]); 96% in experiment [4]; 99% in experiment [5]; 99% in experiment [6]. The “Inhibition of ligand binding, Dopamine D2L” value in experiment [3] (setting [8]) turned out to be 43%. For the same compound, the figures for the inhibition at 0.1 µM in experiment [4], in experiment [5] and in experiment [6] were 92%, 85% and 94%, respectively. In addition, on histamine receptor H1, the “Histamine Binding (1 μM) H1, percent inhibition of specific binding” value is 78% and 79%.
Consider `CN1CCc2c(c3cc(Cl)ccc3n2CC(O)c2ccncc2)C1` (stereo not drawn) [Compound 183, 2-(8-chloro-2-methyl-3,4-dihydro-1H-pyrido[4,3-b]indol-5(2H)-vyl)-1-(pyridin-4-yl)ethanol], for which the inhibition at 1 µM amounted to 47% in experiment [1]; 74% in experiment [2]; 15% in experiment [3] (setting [7]); 78% in experiment [4]; 72% in experiment [5]; 82% in experiment [6]. The inhibition at 1 µM on histamine receptor H1 was found to be 91%.

Usually inhibition stands for the relative decrease from the control value, in per cent.
